Read-outs that look alike come from different tables or passages of the source. Values belong to the molecule of their own block, whether it stands above or below them.
Columns and labels:
Test in all cases: biochemical
Set-up in all cases: Eurofins DiscoverX kinase panel, competitive binding assay at 1 uM, percent of DMSO control
Conditions in all cases: competitive binding, percent of DMSO control
NEK6 = NEK6 (Homo sapiens, UniProt Q9HC98)
Method: (§1) Extended Data Fig. 3 In vitro characterization of potent and selective KIF18A inhibitors. a, KIF18A compounds (1 µM) were assessed across a panel of kinases (n = 96) by a competitive binding assay. Graph presented as percentage of control (POC); dashed line indicates POC value of 30 (n = 1 experiment). b, Tubulin polymerization analysis. Profile of KIF18A compounds (10 µM) relative to DMSO, paclitaxel (5 µM, tubulin stabilizer), or nocodazole (5 µM, tubulin destabilizer). Graphs presented as tubulin fluorescence signal at 440 nm expressed as arbitrary units (a.u.) versus time (min) with area-under-the-curve (AUC) values (n = 1 or 3 independent experiments). c, Mitotic spindle image analysis. […] Representative images were captured with x40 objective (scale bar = 10 µm) (n = 1 experiment). d-f, KIF18A compound effects on HeLa cells. d, Cells were treated for 96 h with DMSO or KIF18A compounds at the indicated concentrations. KIF18A compound concentration-response profiles presented as count relative to the percentage of DMSO control (POC) with count EC50 values (n = 2 independent experiments in duplicate). e, KIF18A protein localization in cells after treatment for 6 hours with DMSO or AM-1882 (0.05 µM). Cells stained to detect DNA, KIF18A, and centrin-3. Representative images of mitotic cells (n = 3 per group) were captured with x60 objective (scale bar = 5 µm) and graphs of line scan measurements were obtained for DNA, KIF18A, and centrin-3 channels expressed as fluorescence intensity (a.u.) versus distance (µm) (n = 1 experiment). f, Mitotic cell fate imaging analysis. HeLa Kyoto cells co-expressing α-tubulin-EGFP and H2B-mCherry proteins released from a G1S block in media containing DMSO or AM-1882 (0.2 µM). Analysis was performed on cells entering the first mitosis (n = 40 cells per group). Graph presented as time in mitosis (h) versus mitotic cell fate, either complete cell division (CCD) or death in mitosis (DiM). Classified cells exiting mitosis by the number of daughter cells and cell death in […] We screened a small-molecule library of diverse compounds for selective inhibitors of KIF18A MT-ATPase motor activity. Two compound hits were discovered that phenocopied the effects of KIF18A KD in cells; these hits are structurally distinct from the KIF18A inhibitor BTB-1 (refs. [27],[28]). […] However, the potency of the KIF18A inhibitors was unaffected by varying ATP and MT concentrations (Extended Data Fig. 2d). This supports our proposed model in which KIF18A inhibitors occupy an allosteric pocket formed by motor helices α4 and α6 close to the motor MT-binding surface. To screen for potential off-target interactions with essential mitotic kinases, three of the KIF18A compounds were profiled against a large panel of kinases. […] We next investigated whether our KIF18A inhibitors affected tubulin polymerization in vitro in the absence of the KIF18A motor. All four KIF18A compounds had tubulin-polymerization profiles similar to that of the DMSO control and distinct from those of the paclitaxel (MT stabilizer) and nocodazole (MT destabilizer) co

MST2 = target: T1, MST2 (Homo sapiens, UniProt Q13188)
T1 construct: gene STK3
T1 sequence (Q13188 1-491): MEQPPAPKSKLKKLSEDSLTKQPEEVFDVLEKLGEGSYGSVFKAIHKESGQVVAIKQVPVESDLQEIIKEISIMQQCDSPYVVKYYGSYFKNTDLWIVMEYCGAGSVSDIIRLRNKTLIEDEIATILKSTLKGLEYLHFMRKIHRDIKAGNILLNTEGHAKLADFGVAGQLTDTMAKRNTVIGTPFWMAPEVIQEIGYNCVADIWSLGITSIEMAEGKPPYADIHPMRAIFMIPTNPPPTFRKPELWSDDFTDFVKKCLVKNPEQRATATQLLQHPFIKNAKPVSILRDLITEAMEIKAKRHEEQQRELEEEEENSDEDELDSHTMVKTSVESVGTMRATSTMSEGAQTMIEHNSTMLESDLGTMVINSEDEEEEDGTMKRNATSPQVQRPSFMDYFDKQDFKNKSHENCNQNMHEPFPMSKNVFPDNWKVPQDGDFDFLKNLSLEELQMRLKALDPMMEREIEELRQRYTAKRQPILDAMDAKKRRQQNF
Method: as §1

FGFR1 = FGFR1 (Homo sapiens, UniProt P11362)
FGFR1, sequence (P11362 whole entry): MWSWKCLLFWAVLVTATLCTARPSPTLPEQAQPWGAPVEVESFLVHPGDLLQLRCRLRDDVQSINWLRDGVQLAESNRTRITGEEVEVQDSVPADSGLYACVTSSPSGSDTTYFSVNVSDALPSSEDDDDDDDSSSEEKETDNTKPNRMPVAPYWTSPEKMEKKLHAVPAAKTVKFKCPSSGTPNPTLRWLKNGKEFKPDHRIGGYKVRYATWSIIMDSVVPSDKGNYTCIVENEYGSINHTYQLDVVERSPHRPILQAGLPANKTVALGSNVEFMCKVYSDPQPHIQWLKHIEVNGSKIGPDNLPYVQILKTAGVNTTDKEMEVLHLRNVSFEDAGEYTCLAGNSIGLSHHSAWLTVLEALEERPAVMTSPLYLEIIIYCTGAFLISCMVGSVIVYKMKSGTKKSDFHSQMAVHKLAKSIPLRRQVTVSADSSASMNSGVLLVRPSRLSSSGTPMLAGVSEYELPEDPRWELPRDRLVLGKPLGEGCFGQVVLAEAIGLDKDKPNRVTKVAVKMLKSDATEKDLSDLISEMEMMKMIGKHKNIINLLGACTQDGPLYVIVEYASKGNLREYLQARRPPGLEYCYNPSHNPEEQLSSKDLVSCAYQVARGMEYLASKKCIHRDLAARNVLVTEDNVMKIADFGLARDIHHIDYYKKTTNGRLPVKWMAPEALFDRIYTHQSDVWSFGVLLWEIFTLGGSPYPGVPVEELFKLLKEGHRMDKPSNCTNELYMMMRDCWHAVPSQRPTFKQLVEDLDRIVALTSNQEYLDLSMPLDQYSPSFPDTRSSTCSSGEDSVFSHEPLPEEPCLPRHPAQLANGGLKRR
Method: as §1

Mps1 = target: T2, Mps1 (Homo sapiens, UniProt P33981)
T2 construct: gene TTK
T2 sequence (P33981 1-857): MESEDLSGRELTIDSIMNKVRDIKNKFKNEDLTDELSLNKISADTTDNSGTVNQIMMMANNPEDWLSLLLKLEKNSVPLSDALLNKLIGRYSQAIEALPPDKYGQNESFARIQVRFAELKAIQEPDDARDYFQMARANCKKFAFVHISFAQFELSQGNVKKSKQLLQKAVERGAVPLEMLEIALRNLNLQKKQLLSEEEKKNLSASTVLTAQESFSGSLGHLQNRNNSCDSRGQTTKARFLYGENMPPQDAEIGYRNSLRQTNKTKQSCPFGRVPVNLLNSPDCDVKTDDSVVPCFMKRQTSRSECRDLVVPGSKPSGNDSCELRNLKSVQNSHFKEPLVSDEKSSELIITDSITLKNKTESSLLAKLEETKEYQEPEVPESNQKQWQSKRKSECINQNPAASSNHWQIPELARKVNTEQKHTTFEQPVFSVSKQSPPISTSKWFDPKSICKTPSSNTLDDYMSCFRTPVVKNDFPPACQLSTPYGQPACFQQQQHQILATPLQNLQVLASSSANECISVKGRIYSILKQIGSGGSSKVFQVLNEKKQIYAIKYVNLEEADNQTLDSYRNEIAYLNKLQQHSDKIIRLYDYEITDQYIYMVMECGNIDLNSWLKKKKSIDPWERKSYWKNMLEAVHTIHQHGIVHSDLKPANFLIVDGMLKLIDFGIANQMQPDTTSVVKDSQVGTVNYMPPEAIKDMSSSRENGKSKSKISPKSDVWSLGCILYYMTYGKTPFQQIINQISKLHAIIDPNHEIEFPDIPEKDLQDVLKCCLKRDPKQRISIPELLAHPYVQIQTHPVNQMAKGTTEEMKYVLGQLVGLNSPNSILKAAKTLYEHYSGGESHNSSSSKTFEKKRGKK
Method: as §1

[1] = read-out: Kinome Profiling performed by Eurofins DiscoverX / AM-1882, 1.0 µM / POC
[2] = read-out: Kinome Profiling performed by Eurofins DiscoverX / AM-5308, 1.0 µM / POC
[3] = read-out: Kinome Profiling performed by Eurofins DiscoverX / AM-0277, 1.0 µM / POC

NEK6, sequence (Q9HC98 whole entry): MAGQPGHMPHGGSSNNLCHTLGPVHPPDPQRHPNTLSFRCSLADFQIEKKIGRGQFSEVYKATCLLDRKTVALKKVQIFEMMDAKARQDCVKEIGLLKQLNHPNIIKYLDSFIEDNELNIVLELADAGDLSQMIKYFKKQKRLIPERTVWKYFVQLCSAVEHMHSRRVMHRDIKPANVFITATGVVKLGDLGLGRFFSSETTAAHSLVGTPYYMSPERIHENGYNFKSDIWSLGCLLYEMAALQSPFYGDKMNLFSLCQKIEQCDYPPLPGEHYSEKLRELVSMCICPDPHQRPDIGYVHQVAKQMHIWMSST

remaining activity at 1 µM (NEK6; [1]): 100%
remaining activity at 1 µM (MST2; [1]): 91.5%
remaining activity at 1 µM (FGFR1; [1]): 98%
remaining activity at 1 µM (Mps1; [1]): 97%
SMILES: CC(C)(C)NS(=O)(=O)c1cccc(NC(=O)c2ccc(S(=O)(=O)NC(C)(C)C)cc2N2CCC3(CC2)CC3)c1 [AM-1882]

remaining activity at 1 µM (NEK6; [2]): 95%
remaining activity at 1 µM (MST2; [2]): 86.5%
remaining activity at 1 µM (FGFR1; [2]): 94.5%
remaining activity at 1 µM (Mps1; [2]): 47%
SMILES: C[C@@H]1CN(c2cccc(NC(=O)c3ccc(NS(=O)(=O)CCO)cc3N3CCC4(CC3)CC4)n2)CCO1 [AM-5308]

remaining activity at 1 µM (NEK6; [3]): 94%
remaining activity at 1 µM (MST2; [3]): 49%
remaining activity at 1 µM (FGFR1; [3]): 94%
remaining activity at 1 µM (Mps1; [3]): 76%
SMILES: CC(C)(CO)Nc1ccc(C(=O)Nc2cccc(S(=O)(=O)C3CCCC3)c2)c(N2CCC3(CC2)CC3)n1 [AM-0277]

— paper PMC10824666 (Nature Cancer, 2023)
